Experiment [1] has as its target human GABAA α1β3γ2 receptor (Homo sapiens (Human), UniProt P14867+P18507). Put plainly: Radioligand binding assay, competition for [3H]Flumazenil, HEK293F cells. Conditions: for LogSel: Log[Ki α1β3γ2 (nM)/Ki α2β2γ1 (nM)]; for γ2/γ1 Selectivity Ratio: Ki α1β3γ2 (nM)/Ki α2β2γ1 (nM). As to the method:
The affinity of compounds at GABAA γ2 subunit-containing receptors was measured by competition for [^3H]Flumazenil (81.1 Ci/mmol; Roche) binding to HEK293F cells expressing human (transiently transfected) receptors of composition α1β3γ2.
Harvested pellets from HEK293F cells expressing the different GABAA γ2 receptor subtypes were resuspended in Mannitol Buffer pH 7.2-7.4 and processed as described above for the cells expressing the GABAA γ1 subunit-containing receptors.
Assays were incubated to equilibrium for 1 hour at 4° C. and harvested onto GF/C uni-filters (Packard) by filtration using a Packard harvester and washing with ice-cold wash buffer (50 mM Tris; pH 7.5). After anhydrousing, filter-retained radioactivity was detected by liquid scintillation counting. Ki values were calculated using Excel-Fit (Microsoft) and are the means of two determinations.

Experiment [2] has as its target human GABAA α5β2γ1 receptor (Homo sapiens (Human), UniProt P31644+Q8N1C3). Put plainly: Radioligand binding assay, competition for [3H]RO7239181, membranes from HEK293F cells. As to the method:
The affinity of compounds at GABAA γ1 subunit-containing receptors was measured by competition for [^3H]RO7239181 (67.3 Ci/mmol; Roche) binding to membranes from HEK293F cells (ThermoFisher R79007) expressing human (transiently transfected) receptors of composition α5β2γ1, α2β2γ1, α1β2γ1. For better protein expression of the α2 subunit-containing receptors, the 28 amino acid long signal peptide (Met1 to Ala28) of the human GABAA α2 subunit was substituted by the 31 amino acid long signal peptide (Met1 to Ser31) of human GABAA α5 subunit.
(§1) Harvested pellets from HEK293F cells expressing the different GABAA receptor subtypes were resuspended in Mannitol Buffer pH 7.2-7.4 (Mannitol 0.29M, Triethylamine 10 mM, Acetic acid 10 mM, EDTA 1 mM plus protease inhibitors (20 tablets Complete, Roche Diagnostics Cat. No. 05 056 489 001 per liter)), washed two times and then resuspended at 1:10 to 1:15 dilution in the same buffer. Cell disruption was performed by stirring the suspension in a Parr vessel #4637 at 435 psi for 15 minutes, and then the suspensions were centrifuged at 1000×g for 15 minutes at 4° C. (Beckman Avanti J-HC; rotor JS-4.2). The supernatant (S1) was transferred in a 21 Schott flask and the pellet (P1) was resuspended with Mannitol Buffer up to 175 ml. The resuspended pellet was transferred into a 250 ml Corning centrifugal beaker and centrifuged at 1500×g for 10 minutes at 4° C. (Beckman Avanti J-HC; rotor JS-4.2). The supernatant (S1) was then transferred in the 21 Schott flask and the pellet was discarded. The supernatants (S1) were centrifuged in 500 ml Beckman polypropylene centrifugal beaker at 15′000×g for 30 minutes at 4° C. (Beckman Avanti J-20 XP; rotor JLA-10.500). The pellet (P2) was resuspended with Mannitol Buffer 1:1 and frozen at −80° C. The supernatant (S2) was centrifuged in 100 ml Beckman polypropylene centrifugal tubes at 48000×g for 50 minutes at 4° C. (Beckman Avanti J-20 XP; rotor JA-18). The supernatant (S3) was discarded and the pellet (P3) was resuspended with 1:1 Mannitol Buffer. The P2 and P3 protein concentration was determined with the BIORAD Standard assay method with bovine serum albumin as standard and measured on the NANO-Drop 1000. The membrane suspension was aliquots (500 μl per tube) and stored at −80° C. until required.
(§2) Membrane homogenates were resuspended and polytronised (Polytron PT1200E Kinematica AG) in Potassium Phosphate 10 mM, KCl 100 mM binding buffer at pH 7.4 to a final assay concentration determined with a previous experiment.
Radioligand binding assays were carried out in a volume of 200 μL (96-well plates) which contained 100 μL of cell membranes, [^3H]RO7239181 at a concentration of 1.5 nM (α5β2γ1) or 20-30 nM (α1β2γ1, α2β2γ1) and the test compound in the range of [0.3-10000]×10^−9 M. Nonspecific binding was defined by 10×10^−6 (α5β2γ1) and 30×10^−6 M RO7239181 and typically represented less than 5% (α5β2γ1) and less than 20% (α1β2γ1, α2β2γ1) of the total binding. Assays were incubated to equilibrium for 1 hour at 4° C. and then, membranes were filtered onto unifilter (96-well white microplate with bonded GF/C filters preincubated 20-50 minutes in 0.3% Polyethylenimine) with a Filtermate 196 harvester (Packard BioScience) and washed 4 times with cold Potassium Phosphate 10 mM pH 7.4, KCl 100 mM binding buffer. After anhydrousing, filter-retained radioactivity was detected by liquid scintillation counting. Ki values were calculated using Excel-Fit (Microsoft) and are the means of two determinations.
Representative test results, obtained by the above described assay measuring binding affinity to HEK293 cells expressing human (h) receptors, are shown in the Table 1.

Experiment [3] deals with human GABAA α2β2γ1 receptor (Homo sapiens (Human), UniProt P47869+Q8N1C3). The description is as above. As to the method: The affinity of compounds at GABAA γ1 subunit-containing receptors was measured by competition for [^3H]RO7239181 (67.3 Ci/mmol; Roche) binding to membranes from HEK293F cells (ThermoFisher R79007) expressing human (transiently transfected) receptors of composition α5β2γ1, α2β2γ1, α1β2γ1.
as §1, §2
Assays were incubated to equilibrium for 1 hour at 4° C. and then, membranes were filtered onto unifilter (96-well white microplate with bonded GF/C filters preincubated 20-50 minutes in 0.3% Polyethylenimine) with a Filtermate 196 harvester (Packard BioScience) and washed 4 times with cold Potassium Phosphate 10 mM pH 7.4, KCl 100 mM binding buffer. After anhydrousing, filter-retained radioactivity was detected by liquid scintillation counting. Ki values were calculated using Excel-Fit (Microsoft) and are the means of two determinations.

The target in experiment [4] is h-GABA-A α2β2γ1 receptor (Homo sapiens (Human), UniProt P47869+Q8N1C3). The experiment in a line: Two-electrode voltage clamp electrophysiology in Xenopus oocytes expressing GABAA receptors. In kind it is cell-based. Conditions: α2β2γ1 GABAA receptor subtype expressing oocytes, GABA EC20, reference PAMs. As to the method: Xenopus laevis oocytes at maturation stages V-VI were used for the expression of cloned mRNA encoding GABAA receptor subunits. Oocytes ready for RNA micro-injection were bought from Ecocyte, Castrop-Rauxel, Germany and stored in modified Barth's medium (composition in mM: NaCl 88, KCl 1, NaHCO3 2.4, HEPES 10, MgSO4 0.82, CaNO3 0.33, CaCl2 0.33, pH=7.5) at 20° C. until the experiment.
Oocytes were plated in 96-well plates for microinjection using the Roboinject automated instrument (MultiChannelSystems, Reutlingen, Germany). Approximately 50 nL of an aqueous solution containing the RNA transcripts for the subunits of the desired GABAA receptor subtype was injected into each oocyte. […] Oocytes were kept in modified Barth's medium (composition in mM: NaCl 88, KCl 1, NaHCO3 4, HEPES 10, MgSO4 0.82, CaNO3 0.33, CaCl, 0.33, pH=7.5) at 20° C. until the experiment.
Electrophysiological experiments were performed using the Roboocyte instrument (MultiChannelSystems, Reutlingen, Germany) on days 3 to 5 after the micro-injection of mRNA. During the experiment the oocytes were constantly superfused by a solution containing (in mM) NaCl 90, KCl 1, HEPES 5, MgCl2 1, CaCl2 1 (pH 7.4). Oocytes were impaled by two glass microelectrodes (resistance: 0.5-0.8 MΩ) which were filled with a solution containing KCl 1M+K-acetate 1.5 M and voltage-clamped to −80 mV. The recordings were performed at room temperature using the Roboocyte two-electrode voltage clamp system (Multichannelsystem). After an initial equilibration period of 1.5 min GABA was added for 1.5 min at a concentration evoking approximately 20% of a maximal current response (EC2O). After another rest interval of 2.5 min GABA was again added evoking a response of similar amplitude and shape. […] Current traces were recorded at a digitization rate of 10 Hz during and shortly before and after the GABA application.
Each compound and concentration was tested on at least 3 oocytes. Different oocytes were used for different compound concentrations.
For the analysis, the digitized current traces of the first and second GABA response were superimposed and, if necessary, rescaled to equal maximal amplitudes. The ratio between the two responses during the time interval of test compound application was calculated point by point. The extremum of the resulting “ratio trace” was taken as the efficacy (“Fold increase”) of the compound expressed as “% modulation of GABA EC20” (100*(Fold increase−1)).
(Two-electrode voltage clamp is typically applied to oocytes expressing channels or transporters.)

Setting [5] is: read-out: Ki h-GABAA α2β2γ1, [3H]RO7239181 20-30 nM, HEK293F membranes, 1 hour at 4° C., mean of two determinations.

Like-named read-outs stand apart in the source and are kept apart here.

As usually defined, the Ki is a measure of affinity in units of concentration, obtained from inhibition or displacement.

In turn, `Cc1nnc2n1-c1ccc(Cl)cc1C(c1ccccc1)=NC2` [Alprazolam, reference compound] came in with a LogSel in experiment [1] of −2.3.
On the same count and under the same terms, then `Clc1ccc2c(c1)C(c1ccccc1)=NCc1nncn1-2` [Estazolam, reference compound], with −2.0.
As to `Cc1nnc2n1-c1ccc(Cl)c(Cl)c1C(c1c(F)ccc(O)c1F)=N[C@H]2C` [Example 19, 2,4-difluoro-3-[(4S)-7,8-dichloro-1,4-dimethyl-4H-[1,2,4]triazolo[4,3-a][1,4]benzodiazepin-6-yl]phenol], the Ki in experiment [2] is 2.12 nM; in experiment [1], 33 nM; in experiment [3], 3.12 nM; in experiment [3] (setting [5]), 3.12 nM. In addition, the “γ2/γ1 Selectivity Ratio” value in experiment [1] is on record as 10.6. Besides, in experiment [1], the LogSel is recorded as 1.02.
For `Cc1cn2c(n1)[C@H](C)N=C(c1nc(O)ccc1Cl)c1c-2ccc(C(F)(F)F)c1Cl` [Example 27, 5-chloro-6-[(4S)-7-chloro-2,4-dimethyl-8-(trifluoromethyl)-4H-imidazo[1,2-a][1,4]benzodiazepin-6-yl]pyridin-2-ol], the inhibition constant (Ki) was 2.8 nM in experiment [2], 3550 nM in experiment [1], 5.22 nM in experiment [3] and 5.22 nM in experiment [3] (setting [5]). Further, the “γ2/γ1 Selectivity Ratio” value in experiment [1] was found to be 679.2. The compound also showed a LogSel in experiment [1] of 2.83.
With `C[C@@H]1N=C(c2nc(O)ccc2F)c2c(ccc(C(F)(F)F)c2Cl)-n2cc(C(=O)NC3CC3)nc21` [Example 31, (4S)-7-chloro-N-cyclopropyl-6-(3-fluoro-6-hydroxy-2-pyridyl)-4-methyl-8-(trifluoromethyl)-4H-imidazo[1,2-a][1,4]benzodiazepine-2-carboxamide], the inhibition constant Ki turned out to be 4.4 nM in experiment [2], 12500 nM in experiment [1], 15.6 nM in experiment [3] and 15.6 nM in experiment [3] (setting [5]). In experiment [1], the “γ2/γ1 Selectivity Ratio” value worked out at 800.9. This compound displayed a LogSel in experiment [1] of 2.90.
`CC(C)NC(=O)c1cn2c(n1)[C@H](C)N=C(c1nc(O)ccc1F)c1c-2ccc(C(F)(F)F)c1Cl` [Example 32, (4S)-7-chloro-6-(3-fluoro-6-hydroxy-2-pyridyl)-N-isopropyl-4-methyl-8-(trifluoromethyl)-4H-imidazo[1,2-a][1,4]benzodiazepine-2-carboxamide]: the inhibitory constant (Ki) in experiment [2] came to 4.7 nM; in experiment [1] it was 8600 nM; in experiment [3], 10.8 nM; in experiment [3] (setting [5]) it was 10.8 nM. In experiment [1], the “γ2/γ1 Selectivity Ratio” value came to 796.0. In experiment [1], this compound came in with a LogSel of 2.90.
For `CN1C(=O)CN=C(c2ccccc2F)c2cc([N+](=O)[O-])ccc21` [Flunitrazepam, reference compound], in experiment [4], the “potentiation of the GABA-induced current” value was roughly 60%.
In experiment [1], `Cc1ncc2n1-c1ccc(Cl)cc1C(c1ccccc1F)=NC2` [Midazolam, reference compound] registered a LogSel of −2.2. Further, in experiment [4], the “potentiation of the GABA-induced current” value is reported as roughly 60%.
In experiment [1], `CN1C(=O)CN=C(c2cc(O)ccc2Cl)c2cc(Cl)ccc21` [RE-A, 7-chloro-5-(2-chloro-5-hydroxy-phenyl)-1-methyl-3H-1,4-benzodiazepin-2-one, reference compound] returned a LogSel of −0.27. In addition, the Ki in experiment [3] ([3H]RO7239181 20-30 nM, HEK293F membranes, 1 hour at 4° C., mean of two determinations, read-out: Ki h-GABAA α2β2γ1) stood at 2.8 nM.
Turning to `CN1C(=O)CN=C(c2cc(O)ccc2F)c2cc(Cl)ccc21` [RE-B, 7-chloro-5-(2-fluoro-5-hydroxy-phenyl)-1-methyl-3H-1,4-benzodiazepin-2-one, reference compound], in experiment [1], the Ki turned out to be 1.1 nM, the “γ2/γ1 Selectivity Ratio” value worked out at 0.58 and the LogSel is −0.24. Further, in experiment [3], the affinity corresponds to a Ki of 1.9 nM.
`Cc1nnc2n1-c1ccc(Cl)cc1C(c1ccccc1Cl)=NC2` [Triazolam, reference compound]: the LogSel in experiment [1] is listed as −1.5. Further, the “potentiation of the GABA-induced current” value in experiment [4] was roughly 60%.

The values above are taken from US12344614B2, “Benzodiazepine derivatives as GABA a GAMMA1 PAM” (Hoffmann-La Roche Inc., priority 2021, dated 2025).
